Legend:
[1] = Stability in Liver Microsomes (monkey); assay type: in vitro ADME; conditions: 1 μM, 0.5 mg protein/mL, NADPH, 60 minutes, 37° C., pH 7.4
Description: (§1) Various compounds were tested for their stability in human, monkey, dog, rat, and mouse liver microsomes. At a final concentration of 1 μM, compounds were incubated with either human, monkey, dog, rat, or mouse liver microsomes (0.5 mg protein/mL) in the presence of an NADPH-solution for 60 minutes at 37° C., pH 7.4 in phosphate buffer. Incubations were performed in duplicate. Reactions were terminated by the addition of methanol. The incubation solution was vortexed and transferred into a 96-well plate. The plate was sealed and centrifuged at approximately 3500 rpm for approximately 10 minutes. After centrifugation, the plate was loaded into 96-well plate autosampler and analyzed by LC/MS. Values are reported as percent of compound remaining after 1 hour.

[2] = Stability in Liver Microsomes (rat); assay type: in vitro ADME; conditions: 1 μM, 0.5 mg protein/mL, NADPH, 60 minutes, 37° C., pH 7.4
Description: as §1

[3] = Stability in Liver Microsomes (mouse); assay type: in vitro ADME; conditions: 1 μM, 0.5 mg protein/mL, NADPH, 60 minutes, 37° C., pH 7.4
Description: as §1

[4] = system: adult male Sprague Dawley rats; assay: Feeding Study (icv AgRP, food intake and body weight); assay type: in vivo, Rat
Description: 27 adult male Sprague Dawley rats (Charles River Laboratories) were implanted with right lateral cerebral ventricular cannulas and allowed to recover for one week. After one week, animals were then randomized into 4 groups that were matched for food intake and body weight: water gavage-icv saline (n=6); Example 7 gavage-icv saline (n=7); water gavage-icv AgRP (n=7); Example 7 gavage-icv AgRP (n=7). Water or Example 7 (30 mg/kg) was administered at by oral gavage followed by icv injection of either saline or 0.2 nmol human AgRP 83-132. AgRP stimulated food intake and body weight gain over the next 24 h compared to saline controls. Both of these effects of AgRP were blocked by injection administration of Example 7.
On day 2 a second dose of Example 7 (30 mg/kg) or water was administered by oral gavage. On day 3, water or Example 7 (30 mg/kg) was administered for the third and final time by oral gavage followed by icv injection of either saline or 0.2 nmol human AgRP83-132. Food intake and body weight were monitored daily and animals were sacrificed on day 5.

[5] = Stability in Liver Microsomes (human); assay type: in vitro ADME; conditions: 1 μM, 0.5 mg protein/mL, NADPH, 60 minutes, 37° C., pH 7.4
Description: as §1

OVX rats = assay: Sexual Behavior, sub-chronic regimen in OVX rats; assay type: in vivo, Rat; conditions: 30 mg/kg/day PO, 5 days
Description: Rats were ovariectomized (OVX) under ketamine/xylazine anesthesia with 8 rats per group. OVX rats were then administered estradiol benzoate (10 micrograms) 48 hours and progesterone (500 micrograms) 4 hours before five baseline tests of sexual behavior with sexually vigorous stud males. Tests were 30 minutes in duration and were conducted at 4-day intervals. All females developed normal rates of appetitive and consummatory sexual behavior. Following this baseline test phase, females were switched to an estrogen-alone baseline phase, during which they were administered estradiol benzoate (10 micrograms) 48 hours before tests of sexual behavior with sexually vigorous males. These tests were conducted at 14-day intervals, to assure low rates of appetitive responding (e.g., solicitations, hops and darts). After the second test, females were assigned randomly to 4 groups, a saline control, two doses of Example 7 antagonist (10 and 30 mg/kg, PO), and a positive control using melanotan II (MT-II) (1 mg/kg, SC). The saline control and Example 7 were gavaged daily for 5 days prior to the test. The MT-II control was injected acutely 5 min prior to the test. The test was recorded on video and scored by a technician blind to which drug the animals were receiving. Behaviors were subjected to one-way ANOVAs. For each significant effect, posthoc tests were conducted on the means using the Tukey method, P<0.05.

[6] = Pharmacokinetic screening in rats (plasma and brain); conditions: rat, 5 mg/kg PO
[7] = Stability in Liver Microsomes (dog); assay type: in vitro ADME; conditions: 1 μM, 0.5 mg protein/mL, NADPH, 60 minutes, 37° C., pH 7.4
Description: as §1

human MC-4R = biological target: T1, human MC-4R (Homo sapiens, UniProt P32245); assay: Biological Assay: inhibition of AgRP functional interaction with MC-4R in presence of αMSH (cAMP production); assay type: cell-based; conditions: HEK293 cells expressing human MC-4R, AgRP83-132 and αMSH present; read-out: Average EC50 (nM) in Biological Assay
T1 construct: expressed in transfected cells
T1 sequence (P32245 whole entry): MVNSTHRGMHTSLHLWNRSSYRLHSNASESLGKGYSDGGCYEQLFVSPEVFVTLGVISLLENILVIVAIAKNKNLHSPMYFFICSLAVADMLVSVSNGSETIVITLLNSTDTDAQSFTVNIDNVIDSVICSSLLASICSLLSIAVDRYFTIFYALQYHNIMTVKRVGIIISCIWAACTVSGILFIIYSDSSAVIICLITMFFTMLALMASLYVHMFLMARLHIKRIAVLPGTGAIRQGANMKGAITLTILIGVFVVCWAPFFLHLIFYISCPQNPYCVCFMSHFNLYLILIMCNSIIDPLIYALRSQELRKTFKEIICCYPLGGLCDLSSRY
Outline: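 HEK293 cells stably expressing human MC-4R (20,000/well) in EBSS/HEPES pH 7.4 with 0.5 mM IBMX. Compounds preincubated 30 min at room temperature with human AgRP83-132, then cells added and stimulated with αMSH 30 min at 37 °C. Intracellular cAMP measured after lysis; inhibition of AgRP seen as increased cAMP.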

[8] = 30 mg/kg oral gavage + icv saline compared to water + icv saline
[9] = 30 mg/kg oral gavage, icv 0.2 nmol human AgRP 83-132, 24 h

Stability in Liver Microsomes (% remaining after 1 hour incubation) Monkey [1]: 67% | Stability in Liver Microsomes (% remaining after 1 hour incubation) Rat [2]: 57% | Stability in Liver Microsomes (% remaining after 1 hour incubation) Mouse [3]: 68% | Stability in Liver Microsomes (% remaining after 1 hour incubation) Human [5]: 78% | concentration at 2 h ([6]; male, Sprague Dawley, plasma, po, 5 mg/kg, Plasma - 2 hours (ng/mL), 2 hour time point): 6460 ng/mL | Brain - 24 hours AUC (h * ng/g) ([6]; 24 hour study): ++++ (values above 20,000 h*ng/g) | Stability in Liver Microsomes (% remaining after 1 hour incubation) Dog [7]: 66% | EC50 (human MC-4R): 159 nM
SMILES: Cc1ccc(CN(CCC(=O)[O-])c2nc([C@H]3CC[C@H](C(C)(C)C)CC3)cs2)s1.[Na+] [Example 7, Sodium; 3-[[4-(trans-4-tert-butyl-cyclohexyl)-thiazol-2-yl]-(5-methyl-thiophen-2-ylmethyl)-amino]-propionate]
effect on food intake, icv saline [4, 8]: no significant effect | effect on weight gain, icv saline [4, 8]: no significant effect | cumulative weight gain over the entire period, Example 7 + icv AgRP ([4]; 30 mg/kg oral gavage days 1, 2, 3, icv AgRP days 1 and 3, to day 5): less than 15 grams | effect on AgRP stimulated body weight gain [4, 9]: blocked | effect on AgRP stimulated food intake [4, 9]: blocked | increase of mean frequency of high-intensity lordosis postures, factor relative to saline (OVX rats): 3.5 | increase of mean number of solicitations, factor relative to saline (OVX rats): 6 | increase of mean frequency of high-intensity lordosis postures, factor relative to MT-II (OVX rats; MT-II 1 mg/kg SC): 3.2 | increase of mean number of solicitations, factor relative to MT-II (OVX rats; MT-II 1 mg/kg SC): 2

Reference: patent publication US8563742B2, “Substituted aminothiazole derivatives, pharmaceutical compositions, and methods of use” (High Point Pharmaceuticals, LLC, priority 2008, dated 2013)
